# Assay results taken from patent US12084444B2, “Spiro-lactam NMDA modulators and methods of using same” (Tenacia Biotechnology (Hong Kong) Co., Limited, priority 2016, dated 2024).
# Assays:
# [1] = IV pharmacokinetics; set-up: species or system Sprague Dawley rats; details: Sprague Dawley, in vivo, rat, 2 mg/kg, normal saline
# Description: Sprague Dawley rats were dosed intravenously using a normal saline formulation containing 2 mg/kg of the compounds identified in the below table. The table below summarizes the results of the IV pharmacokinetics.
# [2] = molecular target: T1, NMDAR2B expressing HEK cell membranes (Homo sapiens, UniProt Q05586+Q13224); test: NMDAR agonist assay, [3H]MK-801 binding, NMDAR2B; format: biochemical; details: 50 μM glutamate
# T1 construct: expressed in transfected cells; host or cells: HEK cells (membrane extract)
# T1 sequence (Q13224 27-1484, other chains not shown): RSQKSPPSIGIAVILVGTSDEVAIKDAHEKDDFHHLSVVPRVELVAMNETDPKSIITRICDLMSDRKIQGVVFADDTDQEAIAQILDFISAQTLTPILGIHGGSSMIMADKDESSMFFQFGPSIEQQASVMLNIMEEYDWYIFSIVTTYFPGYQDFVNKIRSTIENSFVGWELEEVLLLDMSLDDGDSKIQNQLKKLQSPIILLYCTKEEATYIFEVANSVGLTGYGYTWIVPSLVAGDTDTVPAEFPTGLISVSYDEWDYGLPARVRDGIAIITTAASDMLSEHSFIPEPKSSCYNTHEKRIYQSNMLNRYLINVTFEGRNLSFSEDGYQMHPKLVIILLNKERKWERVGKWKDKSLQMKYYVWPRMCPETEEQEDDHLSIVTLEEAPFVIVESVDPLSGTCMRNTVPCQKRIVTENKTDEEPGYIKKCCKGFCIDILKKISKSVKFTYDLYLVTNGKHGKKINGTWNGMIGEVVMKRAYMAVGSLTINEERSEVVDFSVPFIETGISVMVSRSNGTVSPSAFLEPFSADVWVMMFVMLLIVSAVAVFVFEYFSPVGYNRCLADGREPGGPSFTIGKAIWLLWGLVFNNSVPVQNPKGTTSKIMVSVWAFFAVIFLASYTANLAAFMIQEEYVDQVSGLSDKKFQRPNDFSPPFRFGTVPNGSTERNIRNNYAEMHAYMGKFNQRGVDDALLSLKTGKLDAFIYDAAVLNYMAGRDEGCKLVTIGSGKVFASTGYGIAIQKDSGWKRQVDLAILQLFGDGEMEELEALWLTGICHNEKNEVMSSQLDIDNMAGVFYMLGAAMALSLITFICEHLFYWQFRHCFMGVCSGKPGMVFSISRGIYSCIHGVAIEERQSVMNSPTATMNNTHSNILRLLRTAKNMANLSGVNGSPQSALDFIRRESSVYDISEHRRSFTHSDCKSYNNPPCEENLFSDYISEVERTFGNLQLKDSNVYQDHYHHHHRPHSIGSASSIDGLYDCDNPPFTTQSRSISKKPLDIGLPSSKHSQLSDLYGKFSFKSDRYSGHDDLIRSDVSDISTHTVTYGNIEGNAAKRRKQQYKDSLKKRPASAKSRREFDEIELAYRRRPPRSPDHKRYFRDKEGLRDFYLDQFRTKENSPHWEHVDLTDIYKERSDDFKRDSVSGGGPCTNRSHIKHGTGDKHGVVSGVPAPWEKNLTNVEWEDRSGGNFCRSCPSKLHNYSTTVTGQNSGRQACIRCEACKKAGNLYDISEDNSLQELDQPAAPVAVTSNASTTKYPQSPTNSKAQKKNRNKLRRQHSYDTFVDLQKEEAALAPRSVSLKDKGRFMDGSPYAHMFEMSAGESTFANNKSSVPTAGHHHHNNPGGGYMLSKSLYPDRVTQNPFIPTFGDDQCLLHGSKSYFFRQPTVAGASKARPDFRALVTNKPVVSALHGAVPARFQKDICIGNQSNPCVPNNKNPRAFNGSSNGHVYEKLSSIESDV
# In short: (§1)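 HEK membranes (300 μg protein) expressing each subtype were preincubated 15 min at 25 °C with 50 μM glutamate and compound (1×10^−15–1×10^−7 M) or 1 mM glycine. [3H]MK-801 (0.3 μCi) binding then ran 15 min under nonequilibrium conditions, followed by filtration. EC50 and % maximal binding against 1 mM glycine came from three-parameter fits of baseline-subtracted DPM (N=2).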
# [3] = molecular target: T2, NMDAR2D expressing HEK cell membranes (Homo sapiens, UniProt O15399); test: NMDAR agonist assay, [3H]MK-801 binding, NMDAR2D; format: biochemical; details: 50 μM glutamate
# T2 construct: expressed in transfected cells; host or cells: HEK cells (membrane extract)
# Description: (§2) Assays were conducted as described by Moskal et al., “GLYX-13: a monoclonal antibody-derived peptide that acts as an N-methyl-D-aspartate receptor modulator,” Neuropharmacology, 49, 1077-87, 2005. These studies were designed to determine if the test compounds act to facilitate NMDAR activation in NMDAR2A, NMDAR2B, NMDAR2C or NMDAR2D expressing HEK cell membranes as measured by increases in [^3H]MK-801 binding.
# (§3) In the assay, 300 μg of NMDAR expressing HEK cell membrane extract protein was preincubated for 15 minutes at 25° C. in the presence of saturating concentrations of glutamate (50 μM) and varying concentrations of test compound (1×10^−15 M-1×10^−7 M), or 1 mM glycine. Following the addition of 0.3 μCi of [^3H]MK-801 (22.5 Ci/mmol), reactions were again incubated for 15 minutes at 25° C. (nonequilibrium conditions). Bound and free [^3H]MK-801 were separated via rapid filtration using a Brandel apparatus.
# (§4) In analyzing the data, the DPM (disintegrations per minute) of [^3H]MK-801 remaining on the filter were measured for each concentration of test compound or for 1 mM glycine. The DPM values for each concentration of a ligand (N=2) were averaged. The baseline value was determined from the best fit curve of the DPM values modeled using the GraphPad program and the log(agonist) vs. response(three parameters) algorithm was then subtracted from all points in the dataset. The % maximal [^3H]MK-801 binding was then calculated relative to that of 1 mM glycine: all baseline subtracted DPM values were divided by the average value for 1 mM glycine. The EC50 and % maximal activity were then obtained from the best fit curve of the % maximal [^3H]MK-801 binding data modelled using the GraphPad program and the log(agonist) vs. response(three parameters) algorithm.
# The tables below summarize the results for the wild type NMDAR agonists NMDAR2A, NMDAR2B, NMDAR2C, and NMDAR2D, and whether the compound is not an agonist (−), is an agonist (+), or is a strong agonist (++), where column A is based on the % maximal [^3H]MK-801 binding relative to 1 mM glycine (−=0; <100%=+; and >100%=++); and column B is based on log EC50 values (0=−; ≥1×10^−9 M (e.g., −8)=+; and <1×10^−9 M (e.g., −10)=++).
# [4] = system: Sprague Dawley rats; test: Porsolt forced swim test; format: in vivo; details: 0.1 mg/kg; for % reduction in float time: relative to vehicle group
# Description: A non-clinical in vivo pharmacology study (Porsolt assay) was performed to measure antidepressant-like effects. A negative control (0.5% sodium carboxymethyl cellulose in 0.9% sterile saline vehicle) and a positive control (fluoxetine) are shown for comparison against test compound. The study allowed for the evaluation of the effects of each compound on the Porsolt forced swim test as assessed by the rats' response (reduced floating time) during a 5-minute swimming test.
# Male 2-3 month old Sprague Dawley rats were used (Harlan, Indianapolis, IN). Rats were housed in Lucite cages with aspen wood chip bedding, maintained on a 12:12 light:dark cycle (lights on at 5 AM), and given ad libitum access to Purina lab chow (USA) and tap water throughout the study.
# The Porsolt forced swim test adapted for use in rats was performed as described by Burgdorf et al., (The long-lasting antidepressant effects of rapastinel (GLYX-13) are associated with a metaplasticity process in the medial prefrontal cortex and hippocampus. Neuroscience 308:202-211, 2015). Animals were placed in a 46 cm tall×20 cm in diameter clear glass tube filled to 30 cm with tap water (23±1° C.) for 15 min on the first day (habituation) and 5 min on the subsequent test day. Positive control fluoxetine was dosed 3 times (24 h, 5 h and 1 h) prior to testing. Animals were tested 1 h or 24 h post-dosing with the test compounds or vehicle. Animals received a 15 min habituation session 1 day before the 5 min test. Water was changed after every other animal. Animals were videotaped, and floating time as defined as the minimal amount of effort required to keep the animals head above water was scored offline by a blinded experimenter with high inter-rater reliability (Pearson's r>0.9).
# Each compound tested at dose level shown. Significance vs. vehicle group for each experiment is marked. […] A compound marked “No” was not statistically significant from vehicle. Data was averaged for test compound and vehicle groups (N approximately 8 per group) and the percent reduction in floating for group treated with test compound relative to group treated with vehicle is shown.
# [5] = Oral pharmacokinetics (plasma, brain, CSF); format: in vivo, Sprague Dawley rats; details: rat, per os, 10 mg/kg
# Description: In another experiment, Sprague Dawley rats were dosed per os using a normal saline formulation containing 10 mg/kg of the compounds identified in the table below. Plasma, brain, and CSF samples were analyzed at various time points over a 24 hour period. The table below summarizes the results of the oral pharmacokinetics.
# [6] = molecular target: T3, NMDAR2C expressing HEK cell membranes (Homo sapiens, UniProt Q14957); test: NMDAR agonist assay, [3H]MK-801 binding, NMDAR2C; format: biochemical; details: 50 μM glutamate
# T3 construct: expressed in transfected cells; host or cells: HEK cells (membrane extract)
# Description: as §2, §3
# as §4, with “algorithm. […]” for “algorithm.”
# [7] = molecular target: T4, NMDAR2A expressing HEK cell membranes (Homo sapiens, UniProt Q12879); test: NMDAR agonist assay, [3H]MK-801 binding, NMDAR2A; format: biochemical; set-up: key to NMDAR2A B: log EC50: 0=−; ≥1×10^−9 M (e.g., −8)=+; <1×10^−9 M (e.g., −10)=++; details: 50 μM glutamate
# T4 construct: expressed in transfected cells; host or cells: HEK cells (membrane extract)
# T4 sequence (Q12879 23-1464, other chains not shown): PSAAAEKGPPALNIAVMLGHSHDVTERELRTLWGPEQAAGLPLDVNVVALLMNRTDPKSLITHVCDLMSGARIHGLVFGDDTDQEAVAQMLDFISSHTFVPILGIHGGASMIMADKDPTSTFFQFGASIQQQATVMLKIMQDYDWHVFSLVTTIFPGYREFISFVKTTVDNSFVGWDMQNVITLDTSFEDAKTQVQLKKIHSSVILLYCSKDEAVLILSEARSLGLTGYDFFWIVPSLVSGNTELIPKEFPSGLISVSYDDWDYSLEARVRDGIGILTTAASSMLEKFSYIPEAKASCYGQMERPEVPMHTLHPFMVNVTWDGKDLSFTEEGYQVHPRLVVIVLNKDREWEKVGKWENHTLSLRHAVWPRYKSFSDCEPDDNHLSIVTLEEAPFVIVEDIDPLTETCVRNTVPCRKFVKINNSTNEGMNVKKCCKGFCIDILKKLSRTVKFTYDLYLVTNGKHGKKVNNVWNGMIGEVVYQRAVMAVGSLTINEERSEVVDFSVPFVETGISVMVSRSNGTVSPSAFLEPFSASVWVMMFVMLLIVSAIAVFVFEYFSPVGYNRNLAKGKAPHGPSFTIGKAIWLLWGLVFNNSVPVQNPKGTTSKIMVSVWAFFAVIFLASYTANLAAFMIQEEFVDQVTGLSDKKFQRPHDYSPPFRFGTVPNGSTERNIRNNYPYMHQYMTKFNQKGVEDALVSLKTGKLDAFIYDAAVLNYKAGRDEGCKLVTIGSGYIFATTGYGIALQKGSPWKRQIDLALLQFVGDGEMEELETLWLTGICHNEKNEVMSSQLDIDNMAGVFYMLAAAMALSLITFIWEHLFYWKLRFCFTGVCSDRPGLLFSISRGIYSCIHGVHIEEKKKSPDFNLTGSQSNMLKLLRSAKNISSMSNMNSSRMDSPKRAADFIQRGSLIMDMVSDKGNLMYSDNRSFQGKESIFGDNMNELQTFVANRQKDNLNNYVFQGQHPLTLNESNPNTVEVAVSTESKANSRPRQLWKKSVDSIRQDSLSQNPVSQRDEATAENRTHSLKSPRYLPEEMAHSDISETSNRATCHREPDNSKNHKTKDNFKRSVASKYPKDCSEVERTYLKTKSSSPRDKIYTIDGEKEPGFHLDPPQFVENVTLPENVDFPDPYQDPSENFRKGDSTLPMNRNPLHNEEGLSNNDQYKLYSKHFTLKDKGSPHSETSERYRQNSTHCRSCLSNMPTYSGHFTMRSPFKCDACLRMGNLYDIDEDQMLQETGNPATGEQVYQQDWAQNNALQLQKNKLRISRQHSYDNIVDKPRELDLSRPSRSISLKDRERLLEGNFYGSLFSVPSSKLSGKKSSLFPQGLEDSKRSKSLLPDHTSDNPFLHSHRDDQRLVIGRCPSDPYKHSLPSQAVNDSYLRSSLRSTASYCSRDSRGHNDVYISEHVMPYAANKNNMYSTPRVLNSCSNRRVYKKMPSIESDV
# In short: as §1
# [8] = molecular target: T5, NMDAR2A expressing HEK cell membranes (Homo sapiens, UniProt Q05586+Q12879); test: NMDAR agonist assay, [3H]MK-801 binding, NMDAR2A; format: biochemical; set-up: key to NMDAR2A B: log EC50: 0=−; ≥1×10^−9 M (e.g., −8)=+; <1×10^−9 M (e.g., −10)=++; details: 0.25 h, 50 μM glutamate; read-out: NMDAR2A A: % maximal [3H]MK-801 binding relative to 1 mM glycine
# T5 construct: expressed in transfected cells; host or cells: HEK cells (membrane extract)
# T5 sequence (Q12879 23-1464, other chains not shown): as above
# In short: as §1
smiles,measurement,setting,value
"COc1ccc(CN2C[C@@]3(CCNC(=O)C3)C2=O)cc1 [Compound AA-2, 2-(4-methoxybenzyl)-2,7-diazaspiro[3.5]nonane-1,6-dione]",AUC(0-t),[1],3370 ng·h/mL
same,C0,[1],1990 ng/mL
same,clearance,[1],9.82 mL/min/kg
same,half-life,[1],75 min
same,Vd,[1]; read-out: Vss,0.54 L/kg
same,EC50,[2]; read-out: NMDAR2B B: log EC50 (converted),< 1 nM
same,Emax,"[2]; 0.25 h, read-out: NMDAR2B A: % maximal [3H]MK-801 binding relative to 1 mM glycine",< 100%
same,NMDAR2D A: % maximal [3H]MK-801 binding relative to 1 mM glycine,[3],+ (<100%=+)
same,Significance vs. vehicle,[4]; 1 h post-dose,Yes (found to be statistically significant (p<=0.05) from vehicle at dose level shown)
same,% reduction in float time,[4]; 1 h post-dose,51.5%
same,Significance vs. vehicle,[4]; 24 h post-dose,Yes (found to be statistically significant (p<=0.05) from vehicle at dose level shown)
same,% reduction in float time,[4]; 24 h post-dose,77.80%
same,AUC(0-t),"[5]; Sprague Dawley, plasma, po",17300 ng·h/mL
same,bioavailability,"[5]; Sprague Dawley, plasma, po",100%
same,Tmax,"[5]; Sprague Dawley, plasma, po, normal saline",15 min
same,Cmax,"[5]; Sprague Dawley, po, plasma",11300 ng/mL
same,CSF Cmax,[5]; CSF,1476.3 ng/mL
same,Brain Cmax,[5]; brain,1107.2 ng/mL
same,NMDAR2C A: % maximal [3H]MK-801 binding relative to 1 mM glycine,[6],− (−=0)
same,NMDAR2A B: log EC50,[7],−
same,Emax,[8],0%
